Reference: patent US7300946B2, “N-(substituted arylmethyl)-4-(disubstituted methyl) piperidines and pyridines” (Bayer CropScience AG, priority 2002, dated 2007)

Tested on: tobacco budworm (Heliothis virescens [Fabricius])
Assay: surface-treated diet test against the tobacco budworm
Type: in vivo
Conditions: tobacco budworm second instar larvae, 0.25 millimoles of candidate insecticide on the surface of the diet, five-day exposure; for Percent Mortality: compared to total number of insects infested; for Percent Growth Inhibition: inhibition of insect weight relative to untreated controls
Summary of the method: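 Wheat germ artificial diet surface-treated with 40 µL of 50 mM DMSO stock diluted 1:7 in 1:1 water/acetone (0.25 millimolar on diet), or sub-multiples for rate tests. One second-instar larva per well, 25° C, 60% RH, 5 days; percent weight inhibition vs DMSO controls and percent mortality.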

FC(F)(F)c1ccc(C(=C2CCN(Cc3ccc(Oc4ccc(Cl)nn4)cc3)CC2)c2ccc(C(F)(F)F)cc2)cc1 [Compound 826]
Percent Mortality: 100% | Percent Growth Inhibition: 100%

CC(C)OC(=O)Nc1ccc(COC(c2ccc(C(F)(F)F)cc2)C2CCN(Cc3ccc(NC(=O)OC(C)C)cc3)CC2)cc1 (stereo not shown) [Compound 457]
Percent Mortality (surface-treated diet): 0% | Percent Growth Inhibition (surface-treated diet): 16%

COc1ccc(C(=O)Nc2ccc(CN3CCC(C(OC(=O)Nc4cc(F)cc(F)c4)c4ccc(C(F)(F)F)cc4)CC3)cc2)cc1 (stereo not shown) [Compound 554]
Percent Mortality (surface-treated diet): 0% | Percent Growth Inhibition (surface-treated diet): 99%

Cn1nnc(-c2ccc(CN3CCC(C(NCc4ccccc4Cl)c4ccc(OC(F)(F)F)cc4)CC3)cc2)n1 (stereo not shown) [Compound 309]
Percent Mortality (surface-treated diet): 100% | Percent Growth Inhibition (surface-treated diet): 100%

Cn1nnc(-c2ccc(C[N+]3([O-])CCC(C(OC(=O)Nc4ccc(Cl)cc4)c4ccc(OC(F)(F)F)cc4)CC3)cc2)n1 (stereo not shown) [Compound 399]
Percent Mortality (surface-treated diet): 100% | Percent Growth Inhibition (surface-treated diet): 100%

CCCOc1ccc(CN2CCC(C(OC(=O)Nc3cc(F)cc(F)c3)c3ccc(F)cc3)CC2)cc1 (stereo not shown) [Compound 479]
Percent Mortality (surface-treated diet): 100% | Percent Growth Inhibition (surface-treated diet): 100%

CC(C)C(=O)Nc1ccc(CN2CCC(C(OC(=O)Nc3cc(F)cc(F)c3)c3ccc(C(F)(F)F)cc3)CC2)cc1 (stereo not shown) [Compound 496]
Percent Mortality (surface-treated diet): 100% | Percent Growth Inhibition (surface-treated diet): 100%

CC(C)OC(=O)Nc1ccc(CN2CCC(C(OC(=O)Nc3ccc(Cl)cc3)c3ccc(OC(F)(F)F)cc3)CC2)cc1 (stereo not shown) [Compound 513]
Percent Mortality (surface-treated diet): 100% | Percent Growth Inhibition (surface-treated diet): 100%

Cn1nnc(-c2ccc(CN3CCC(=C(c4ccc(C(F)(F)F)cc4)c4ccc(C(F)(F)F)cc4)CC3)cc2)n1 [Compound 75]
Percent Mortality (surface-treated diet): 100% | Percent Growth Inhibition (surface-treated diet): 96%

CCCOc1ccc(CN2CCC(=C(c3ccc(O)cc3)c3ccc(O)cc3)CC2)cc1 [Compound 44]
Percent Mortality (surface-treated diet): 67% | Percent Growth Inhibition (surface-treated diet): 100%

Cc1ccc(CNC(=O)OC(c2ccc(C(F)(F)F)cc2)C2CCN(Cc3ccc(Oc4ccccn4)cc3)CC2)cc1 (stereo not shown) [Compound 695]
Percent Mortality (surface-treated diet): 100% | Percent Growth Inhibition (surface-treated diet): 100%

CCn1nnc(-c2ccc(CN3CCC(C(OC(=O)Nc4ccc(-c5ccccc5)cc4)c4ccc(Oc5ccccc5)cc4)CC3)cc2)n1 (stereo not shown) [Compound 621]
Percent Mortality (surface-treated diet): 0% | Percent Growth Inhibition (surface-treated diet): 4%

O=C(Nc1cccc(F)c1)OC(c1ccc(Cl)cc1)C1CCN(Cc2ccc(Oc3ncccn3)cc2)CC1 (stereo not shown) [Compound 713]
Percent Mortality: 100% | Percent Growth Inhibition: 100%

CCn1nnc(-c2ccc(CN3CCC(C(OC(=O)Nc4cccc(C(F)(F)F)c4)c4ccc(C)cc4)CC3)cc2)n1 (stereo not shown) [Compound 599]
Percent Mortality (surface-treated diet): 100% | Percent Growth Inhibition (surface-treated diet): 100%

COc1ccc(C(=O)NC(c2ccc(OC(F)(F)F)cc2)C2CCN(Cc3ccc(-c4nnn(C)n4)cc3)CC2)cc1 (stereo not shown) [Compound 331]
Percent Mortality (surface-treated diet): 67% | Percent Growth Inhibition (surface-treated diet): 98%

CCON=Cc1ccc(CN2CCC(C(Oc3ccc(C(F)(F)F)cc3)c3ccc(C(F)(F)F)cc3)CC2)cc1 (stereo not shown) [Compound 454]
Percent Mortality (surface-treated diet): 100% | Percent Growth Inhibition (surface-treated diet): 100%

CCON=Cc1ccc(CN2CCC(C(OC(=O)Nc3ccc(F)c(F)c3)c3ccc(OC(F)(F)F)cc3)CC2)cc1 (stereo not shown) [Compound 195]
Percent Mortality (surface-treated diet): 100% | Percent Growth Inhibition (surface-treated diet): 100%

Cn1nnc(-c2ccc(CN3CCC(C(NC(=O)Nc4ccc([N+](=O)[O-])cc4)c4ccc(OC(F)(F)F)cc4)CC3)cc2)n1 (stereo not shown) [Compound 346]
Percent Mortality (surface-treated diet): 100% | Percent Growth Inhibition (surface-treated diet): 100%

CCn1nnc(-c2ccc(CN3CCC(C(OC(=O)Nc4cc(F)cc(F)c4)c4ccccc4Cl)CC3)cc2)n1 (stereo not shown) [Compound 570]
Percent Mortality (surface-treated diet): 100% | Percent Growth Inhibition (surface-treated diet): 100%

CC(C)COC(=O)Nc1ccc(CN2CCC(=C(c3ccc(C(F)(F)F)cc3)c3ccc(C(F)(F)F)cc3)CC2)cc1 [Compound 59]
Percent Mortality (surface-treated diet): 0% | Percent Growth Inhibition (surface-treated diet): 59%

O=C(Nc1ccc(Cl)c(Cl)c1)OC(c1ccc(C(F)(F)F)cc1)C1CC[N+]([O-])(Cc2ccc(Oc3ccccn3)cc2)CC1 (stereo not shown) [Compound 396]
Percent Mortality (surface-treated diet): 100% | Percent Growth Inhibition (surface-treated diet): 100%

FC(F)(F)Oc1ccc(C(Oc2ccc(C(F)(F)F)cc2)C2CCN(Cc3ccc(Oc4ncccn4)cc3)CC2)cc1 (stereo not shown) [Compound 456]
Percent Mortality (surface-treated diet): 17% | Percent Growth Inhibition (surface-treated diet): 100%

Cn1nnc(-c2ccc(CN3CCC(C(NC(=O)c4ccc(F)cc4)c4ccc(OC(F)(F)F)cc4)CC3)cc2)n1 (stereo not shown) [Compound 328]
Percent Mortality (surface-treated diet): 0% | Percent Growth Inhibition (surface-treated diet): 95%

CCCOc1ccc(CN2CCC(C(OC(=O)Nc3cc(F)cc(F)c3)c3ccc(Cl)cc3)CC2)cc1 (stereo not shown) [Compound 474]
Percent Mortality (surface-treated diet): 100% | Percent Growth Inhibition (surface-treated diet): 100%

CCn1nnc(-c2ccc(CN3CCC(C(OC(=O)Nc4ccc(-c5ccccc5)cc4)c4ccc(C(F)(F)F)cc4)CC3)cc2)n1 (stereo not shown) [Compound 297]
Percent Mortality (surface-treated diet): 100% | Percent Growth Inhibition (surface-treated diet): 100%

CCn1nnc(-c2ccc(CN3CCC(C(OC(=O)Nc4ccc(Cl)cc4)c4ccc(OC)c(OC)c4)CC3)cc2)n1 (stereo not shown) [Compound 608]
Percent Mortality (surface-treated diet): 83% | Percent Growth Inhibition (surface-treated diet): 100%

CCn1nnc(-c2ccc(CN3CCC(C(OC(=O)Nc4ccc(Cl)c(Cl)c4)c4ccc(C(F)(F)F)cc4)CC3)cc2)n1 (stereo not shown) [Compound 283]
Percent Mortality (surface-treated diet): 100% | Percent Growth Inhibition (surface-treated diet): 100%

CCn1nnc(-c2ccc(CN3CCC(C(OC(=O)Nc4ccc(C(F)(F)F)cc4)c4cc(Cl)cc(Cl)c4)CC3)cc2)n1 (stereo not shown) [Compound 581]
Percent Mortality (surface-treated diet): 100% | Percent Growth Inhibition (surface-treated diet): 100%

O=C(Nc1ccc(Cl)cc1)OC(c1ccc(C(F)(F)F)cc1)C1CCN(Cc2ccc(Oc3ccccn3)cc2)CC1 (stereo not shown) [Compound 227, N-(4-chlorophenyl)({1-[(4-(2-pyridyloxy)phenyl)methyl](4-piperidyl)}[4-(trifluoromethyl)phenyl]methoxy)carboxamide]
Percent Mortality (surface-treated diet): 100% | Percent Growth Inhibition (surface-treated diet): 100%

[O-][N+]1(Cc2ccc(Oc3ncccn3)cc2)CCC(=C(c2ccc(C(F)(F)F)cc2)c2cccc(Cl)c2)CC1 (stereo not shown) [Compound 846]
Percent Mortality: 100% | Percent Growth Inhibition: 100%

CCn1nnc(-c2ccc(C[N+]3([O-])CCC(C(OC(=O)Nc4ccc(OC(F)(F)F)cc4)c4ccc(OC(F)(F)F)cc4)CC3)cc2)n1 (stereo not shown) [Compound 405]
Percent Mortality (surface-treated diet): 100% | Percent Growth Inhibition (surface-treated diet): 100%

O=C(Nc1ccc(C(F)(F)F)cc1)OC(c1ccc(C(F)(F)F)cc1)C1CCN(Cc2ccc(Oc3ccccn3)cc2)CC1 (stereo not shown) [Compound 245]
Percent Mortality (surface-treated diet): 100% | Percent Growth Inhibition (surface-treated diet): 100%

CCOC(=O)Nc1ccc(CN2CCC(C(OC(=O)Nc3cc(F)cc(F)c3)c3ccc(C(F)(F)F)cc3)CC2)cc1 (stereo not shown) [Compound 499]
Percent Mortality (surface-treated diet): 100% | Percent Growth Inhibition (surface-treated diet): 100%

CCn1nnc(-c2ccc(CN3CCC(C(OC(=O)Nc4ccc(Cl)c(Cl)c4)c4ccc(-c5ccccc5)cc4)CC3)cc2)n1 (stereo not shown) [Compound 612]
Percent Mortality (surface-treated diet): 0% | Percent Growth Inhibition (surface-treated diet): 48%

CCn1nnc(-c2ccc(CN3CCC(C(OC(=O)Nc4ccc(Cl)cc4)c4ccc(OC(F)(F)F)cc4)CC3)cc2)n1 (stereo not shown) [Compound 267]
Percent Mortality (surface-treated diet): 100% | Percent Growth Inhibition (surface-treated diet): 100%
